# In EP0936218B1, “BENZIMIDAZOLE DERIVATIVES” (MOCHIDA PHARMACEUTICAL CO., LTD., priority 1996, dated 1998):
# Experiments:
# BALB/c male mice = details: mouse, in vivo, po, 100 mg/kg/day
# Source text: Toxicity of compounds of the present invention was examined.
# [1] = test system: intraperitoneal eosinophilia; assay: Action on intraperitoneal eosinophilia model mice (sensitized with swine roundworm extract); format: in vivo, BALB/c male mice; details: oral, once a day, 10 times, BALB/c mice
# Protocol: Using five animals per group of BALB/c male mice (about 25 g in body weight), 0.11 mL of physiological saline containing 0.1 mg of swine roundworm extract was administered into the peritoneal cavity of each mouse to sensitize. The same treatment was repeated 7 days after the administration and, 3 days thereafter, each animal was sacrificed by phlebotomy, 3 mL of physiological saline containing 1% dipotassium ethylenediaminetetraacetate (EDTA) was administered by intraperitoneal injection and its abdominal region was massaged for about 30 seconds. The abdominal region was incised to collect intraperitoneal fluid which was subsequently centrifuged at 130 x g for 10 minutes, and the resulting precipitate was mixed with 500 µl of fetal calf serum containing 1% EDTA to prepare a cell suspension. A portion of the cell suspension was daubed on a slide glass using a spinner to carry out Diff-Quik staining, and then total leukocytes and eosinophils were counted to calculate the ratio of eosinophils in the total leukocytes. The number of total leukocytes in the cell suspension was measured using an automatic blood cell counter. The number of eosinophils in the cell suspension was calculated by multiplying the ratio of eosinophils in the total leukocytes by the number of total leukocytes.
# Each of the compounds to be tested was suspended in 5% acacia aqueous solution and orally administered once a day for a total of 10 times starting immediately after the initial sensitization (test compound-administered group). Also, 5% acacia aqueous solution was orally administered to a group of mice in which sensitization and administration of test compounds were not carried out (non-treated group) and another group of mice in which sensitization was carried out but test compounds were not administered (control group).
# The dose of each compound to be tested and the intraperitoneal eosinophilia inhibition rate calculated by the following formula are shown in Table 1. Eosinophilia inhibition rate (%) = {1 - (test compound- administered group - non-treated group)/(control group - non- treated group)} x 100 [formula]
Compound,mortal case (BALB/c male mice),Intraperitoneal eosinophilia inhibition rate (%) ([1]; dose 10 mg/kg/day),other results
"O=C(O)CC(=O)c1cccc2nc(CCc3ccccc3)[nH]c12 [Example 1, 3-(2-(2-phenylethyl)benzimidazol-4-yl)-3-oxopropanoic acid]",no mortal case was found,–,Intraperitoneal eosinophilia inhibition rate (%) ([1]; dose 3 mg/kg/day): 67%; Intraperitoneal eosinophilia inhibition rate (%) ([1]; dose 30 mg/kg/day): 78%
"COC(=O)CC(=O)c1cccc2nc(CCc3ccccc3)[nH]c12 [Example 2, methyl 3-(2-(2-phenylethyl)benzimidazol-4-yl)-3-oxopropanoate]",no mortal case was found,–,Intraperitoneal eosinophilia inhibition rate (%) ([1]; dose 100 mg/kg/day): 42%
"CCOC(=O)CC(=O)c1cccc2nc(CCc3ccccc3)[nH]c12 [Example 3, ethyl 3-(2-(2-phenylethyl)benzimidazol-4-yl)-3-oxopropanoate]",–,67%,Intraperitoneal eosinophilia inhibition rate (%) ([1]; dose 30 mg/kg/day): 75%
"COC(=O)CC(O)c1cccc2nc(CCc3ccccc3)[nH]c12 (stereo not drawn) [Example 5, methyl 3-(2-(2-phenylethyl)benzimidazol-4-yl)-3-hydroxypropanoate]",no mortal case was found,–,Intraperitoneal eosinophilia inhibition rate (%) ([1]; dose 100 mg/kg/day): 62%
"CCOC(=O)CC(O)c1cccc2nc(CCc3ccccc3)[nH]c12 (stereo not drawn) [Example 6, ethyl 3-(2-(2-phenylethyl)benzimidazol-4-yl)-3-hydroxypropanoate]",–,59%,Intraperitoneal eosinophilia inhibition rate (%) ([1]; dose 3 mg/kg/day): 35%
"O=C(O)CC(O)c1cccc2nc(CCc3ccccc3)[nH]c12 (stereo not drawn) [Example 7, 3-(2-(2-phenylethyl)benzimidazol-4-yl)-3-hydroxypropanoic acid]",no mortal case was found,–,Intraperitoneal eosinophilia inhibition rate (%) ([1]; dose 0.3 mg/kg/day): 55%
"CCOC(=O)CC(=O)c1cccc2c1nc(CCc1ccccc1)n2C [Example 10, ethyl 3-(1-methyl-2-(2-phenylethyl)benzimidazol-4-yl)-3-oxopropanoate]",no mortal case was found,–,–
"CC(=O)OCC(=O)[C@@]1(O)CC[C@H]2[C@@H]3CCC4=CC(=O)C=C[C@]4(C)[C@H]3[C@@H](O)C[C@@]21C [Prednisolone acetate, 11β,17α,21-trihydroxypregna-1,4-diene-3,20-dione 21-acetate, reference compound]",–,61 - 85%,–
